Measured values published in PubChem BioAssay AID1919009 (Molecular Pharmacology Branch, DTP, NCI, 2023).

Test system: K24384-001-R-PDC complex spheroid growth
Assay: Anticancer human tumor K24384-001-R-PDC patient-derived pancreatic adenocarcinoma cell line growth inhibition [AhR]
Details: for IC50: curve of first compound; for viability, T/C: stronger effect = lower value
Source text: Multicellular complex tumor spheroid response to aryl hydrocarbon receptor antagonists in combination with a variety of drugs and investigational agents in selected tumor cell lines
The current study was undertaken to assess response to aryl hydrocarbon receptor antagonists in combination with standard-of-care drugs and investigational agents in solid tumor complex spheroid models. Complex spheroids include a stromal component modeled by human endothelial cells (HUVEC) and fibroblasts modeled by human mesenchymal stem cells (MSCs). The concentration ranges selected for each drug and investigational agent were based upon clinically achievable concentrations if the clinical Cmax of the agent was known.
Compounds. The drugs and investigational agents: BAY 2416964 (NSC825713), GNF351 (NSC835774), CH-223191 (NSC835775), CPI-455 (NSC825282), aza-TdCyd (NSC777586), decitabine (NSC127716), belinostat (NSC758774), entinostat (NSC756642), pevonedistat (NSC761192), tazemetostat (NSC777109), talazoparib (NSC765396), olaparib (NSC753686), selinexor (NSC780203), nedisertib (M3814, NSC802822), bortezomib (NSC756655), venetoclax (NSC766270), doxorubicin (NSC123127), elimusertib (BAY189344, NSC800525), ceralasertib (AZD6738, NSC777638), TAK-243 (NSC785004), alisertib (NSC759677), etoposide (NSC141540), topotecan (NSC609699), eribulin (NSC707389), gemcitabine (NSC613327), carboplatin (NSC241240), cisplatin (NSC119875), and SN-38 (NSC673596) were obtained from the National Cancer Institute (NCI) Developmental Therapeutics Program Chemical Repository (32). The FDA-approved anticancer drug set is available from the Developmental Therapeutics Program at https://dtp.cancer.gov/organization/dscb/obtaining/available plates.htm. […] The stock solutions were prepared in dimethyl sulfoxide (DMSO, Sigma-Aldrich, St. Louis, MO, cat. D2650), except for the platinum compounds which were prepared in saline (Quality Biological, Gaithersburg, MD, cat. 114-055-101), at 800-fold the tested concentration and stored at -70 degrees C prior to their use. All drugs and investigational agents were tested over a range starting from a high concentration at or near the clinical Cmax and decreasing in half-log increments. If the clinical Cmax for an agent had not been determined, the highest concentration tested was 10 microM (Table 1).
Cell Culture. All cells were maintained in an incubator at 37 degrees C and 5% CO2 with 95% humidity. The PDC lines were cultured according to standard operating procedures established by the NCI PDMR (https://pdmr.cancer.gov). Briefly, all PDCs were thawed and cultured in Matrigel-coated flasks prepared with a working solution of 1X Ham's F-12 nutrient mix, without supplementation (Invitrogen, Waltham, MA, cat. 11765054), 100 U/mL penicillin-streptomycin (Invitrogen, cat. 15140122), and 2.5% Matrigel (Corning Inc., Corning, NY, cat. 354248) for the first three passages. All PDCs were cultured in complete DMEM/F-12 media containing advanced DMEM/F-12 (Invitrogen, cat. 12634028), 4.9% defined fetal bovine serum, heat inactivated (HyClone Laboratories Inc., Logan, UT, cat. SH30070.03HI), 389 ng/mL hydrocortisone (Sigma-Aldrich, cat. H4001), 9.7 ng/mL human EGF recombinant protein (Invitrogen, cat. PHG0313), 23.4 microg/mL adenine (Sigma-Aldrich, cat. A2786), 97.3 U/mL penicillin-streptomycin (Invitrogen, cat. 15140122), 1.9 mM L-glutamine (Invitrogen, cat. 25030081), and 9.7 microM Y-27632 dihydrochloride (Tocris Bioscience, Bristol, United Kingdom, cat. 1254). The PDCs were cultured in complete DMEM/F12 media without 10 microM Y-27632 dihydrochloride for at least two passages prior to the screen. The established cell lines NCI-H1341 and […] were cultured in DMEM/F-12, HEPES (Invitrogen, cat. 11330032), 5% defined fetal bovine serum (HyClone Laboratories Inc., cat. SH30070.03), ITS premix universal culture supplement [insulin (5 microg/mL), transferrin (5 microg/mL), and selenious acid (5 ng/mL)] […]

[1] = second compound 0.1 µM, first compound 0.0316 µM
[2] = second compound 0.1 µM, first compound 0.1 µM
[3] = second compound 0.1 µM, first compound 0.316 µM
[4] = second compound 0.1 µM, first compound 1 µM
[5] = second compound 0.1 µM, first compound 3.16 µM
[6] = second compound 0.1 µM, first compound 10 µM
[7] = second compound 0.316 µM, first compound 0.0316 µM
[8] = second compound 0.316 µM, first compound 0.1 µM
[9] = second compound 0.316 µM, first compound 0.316 µM
[10] = second compound 0.316 µM, first compound 1 µM
[11] = second compound 0.316 µM, first compound 3.16 µM
[12] = second compound 0.316 µM, first compound 10 µM
[13] = second compound 1 µM, first compound 0.0316 µM
[14] = second compound 1 µM, first compound 0.1 µM
[15] = second compound 1 µM, first compound 0.316 µM
[16] = second compound 1 µM, first compound 1 µM
[17] = second compound 1 µM, first compound 3.16 µM
[18] = second compound 1 µM, first compound 10 µM
[19] = second compound 3.16 µM, first compound 0.0316 µM
[20] = second compound 3.16 µM, first compound 0.1 µM
[21] = second compound 3.16 µM, first compound 0.316 µM
[22] = second compound 3.16 µM, first compound 1 µM
[23] = second compound 3.16 µM, first compound 3.16 µM
[24] = second compound 3.16 µM, first compound 10 µM
[25] = second compound 10 µM, first compound 0.0316 µM
[26] = second compound 10 µM, first compound 0.1 µM
[27] = second compound 10 µM, first compound 0.316 µM
[28] = second compound 10 µM, first compound 1 µM
[29] = second compound 10 µM, first compound 3.16 µM
[30] = second compound 10 µM, first compound 10 µM
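Wherever viability, T/C is given: percent of DMSO vehicle-treated spheroid viability set as 100%.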

| IC50 (second compound 0.1 µM) [nM] | IC50 (second compound 0.316 µM) [nM] | IC50 (second compound 1 µM) [nM] | IC50 (second compound 3.16 µM) [nM] | IC50 (second compound 10 µM) [nM] | Compound | viability, T/C [1] [%] | viability, T/C [2] [%] | viability, T/C [3] [%] | viability, T/C [4] [%] | viability, T/C [5] [%] | viability, T/C [6] [%] | viability, T/C [7] [%] | viability, T/C [8] [%] | viability, T/C [9] [%] | viability, T/C [13] [%] | viability, T/C [14] [%] | viability, T/C [19] [%] | viability, T/C [20] [%] | viability, T/C [25] [%] | viability, T/C [26] [%] | also measured |
| --- | --- | --- | --- | --- | --- | --- | --- | --- | --- | --- | --- | --- | --- | --- | --- | --- | --- | --- | --- | --- | --- |
| > 10000 | > 10000 | > 10000 | 9000 | > 10000 | CC1(C)CCC(CN2CCN(c3ccc(C(=O)NS(=O)(=O)c4ccc(NCC5CCOCC5)c([N+](=O)[O-])c4)c(Oc4cnc5[nH]ccc5c4)c3)CC2)=C(c2ccc(Cl)cc2)C1 + CC(CO)NC(=O)c1cc(-c2ccc(Cl)cc2)nn(-c2cnn(C)c2)c1=O | 91.4 | 115 | 94.4 | 88.3 | 87.9 | 50.5 | 117 | 124 | 123 | 123 | 139 | 97.3 | 112 | 101 | 114 | viability, T/C [10]: 101%; viability, T/C [11]: 106%; viability, T/C [12]: 49.9%; viability, T/C [15]: 123%; viability, T/C [16]: 115%; viability, T/C [17]: 110%; viability, T/C [18]: 51.7%; viability, T/C [21]: 122%; viability, T/C [22]: 110%; viability, T/C [23]: 77.9%; viability, T/C [24]: 47.2%; viability, T/C [27]: 113%; viability, T/C [28]: 110%; viability, T/C [29]: 90.2%; viability, T/C [30]: 53% |
| 2010 | 7780 | > 10000 | > 10000 | > 10000 | COc1cc(Nc2ncc3c(n2)-c2ccc(Cl)cc2C(c2c(F)cccc2OC)=NC3)ccc1C(=O)O + CC(CO)NC(=O)c1cc(-c2ccc(Cl)cc2)nn(-c2cnn(C)c2)c1=O | 87.6 | 80.7 | 84 | 57.6 | 44.5 | 45.5 | 81 | 79.9 | 76.4 | 92.3 | 77.7 | 90.6 | 73.4 | 94 | 77.1 | viability, T/C [10]: 57.5%; viability, T/C [11]: 48.4%; viability, T/C [12]: 51.6%; viability, T/C [15]: 79.4%; viability, T/C [16]: 60.5%; viability, T/C [17]: 49.5%; viability, T/C [18]: 55%; viability, T/C [21]: 72.5%; viability, T/C [22]: 54%; viability, T/C [23]: 62.3%; viability, T/C [24]: 58.6%; viability, T/C [27]: 80.7%; viability, T/C [28]: 69.7%; viability, T/C [29]: 64%; viability, T/C [30]: 65.8% |
| > 100 | > 100 | > 100 | > 100 | > 100 | Cn1ncnc1C1c2n[nH]c(=O)c3cc(F)cc(c23)NC1c1ccc(F)cc1 (stereo not given) + CC(CO)NC(=O)c1cc(-c2ccc(Cl)cc2)nn(-c2cnn(C)c2)c1=O | 82 | 69.5 |  |  |  |  | 74.7 | 74.8 |  | 76.6 | 72.4 | 61.8 | 62.8 | 63.3 | 54.1 | viability, T/C (second compound 0.1 µM, first compound 0.000316 µM): 101%; viability, T/C (second compound 0.1 µM, first compound 0.001 µM): 99.9%; viability, T/C (second compound 0.1 µM, first compound 0.00316 µM): 94%; viability, T/C (second compound 0.1 µM, first compound 0.01 µM): 79.8%; viability, T/C (second compound 0.316 µM, first compound 0.000316 µM): 105%; viability, T/C (second compound 0.316 µM, first compound 0.001 µM): 108%; viability, T/C (second compound 0.316 µM, first compound 0.00316 µM): 90.4%; viability, T/C (second compound 0.316 µM, first compound 0.01 µM): 80.8%; viability, T/C (second compound 1 µM, first compound 0.000316 µM): 95%; viability, T/C (second compound 1 µM, first compound 0.001 µM): 105%; viability, T/C (second compound 1 µM, first compound 0.00316 µM): 90.3%; viability, T/C (second compound 1 µM, first compound 0.01 µM): 65.8%; viability, T/C (second compound 3.16 µM, first compound 0.000316 µM): 78.7%; viability, T/C (second compound 3.16 µM, first compound 0.001 µM): 74.4%; viability, T/C (second compound 3.16 µM, first compound 0.00316 µM): 81.2%; viability, T/C (second compound 3.16 µM, first compound 0.01 µM): 69.9%; viability, T/C (second compound 10 µM, first compound 0.000316 µM): 66.3%; viability, T/C (second compound 10 µM, first compound 0.001 µM): 67.8%; viability, T/C (second compound 10 µM, first compound 0.00316 µM): 67.8%; viability, T/C (second compound 10 µM, first compound 0.01 µM): 66.1% |
| 984 | 811 | 860 | 473 | 642 | NS(=O)(=O)OCC1CC(n2ccc3c(NC4CCc5ccccc54)ncnc32)CC1O (stereo not given) + CC(CO)NC(=O)c1cc(-c2ccc(Cl)cc2)nn(-c2cnn(C)c2)c1=O | 114 | 123 | 116 | 49 | 28.7 | 25.3 | 132 | 147 | 89.4 | 152 | 162 | 125 | 128 | 87.1 | 79.8 | viability, T/C [10]: 45.6%; viability, T/C [11]: 26.6%; viability, T/C [12]: 22.1%; viability, T/C [15]: 72%; viability, T/C [16]: 38.2%; viability, T/C [17]: 32.9%; viability, T/C [18]: 22.5%; viability, T/C [21]: 60.6%; viability, T/C [22]: 38.8%; viability, T/C [23]: 28.6%; viability, T/C [24]: 23.1%; viability, T/C [27]: 59.1%; viability, T/C [28]: 44.7%; viability, T/C [29]: 29.6%; viability, T/C [30]: 24.6% |
